Laboratory results published in PMC4635624, “In vitro and in vivo single-agent efficacy of checkpoint kinase inhibition in acute lymphoblastic leukemia” (Journal of Hematology & Oncology, 2015).

Tests used:
[1] = test system: Chk1 pathway in normal bone marrow mononuclear cells; assay: Western blot analysis in normal cells; assay type: cell-based, human; settings: in contrast to leukemia cells
[2] = test system: RPMI-8402, BV-173, and SUP-B15 cell lines; assay: Cell cycle analysis (propidium iodide); assay type: cell-based, human; settings: increasing concentrations, 24 h; concomitant increment of cell debris
Method: (§1) The effect of the inhibition of Chk1 pathway on cell cycle progression was evaluated in RPMI-8402, BV-173, SUP-B15, and NALM-6 cell lines. Cells were incubated with increasing concentrations of PF-00477736 for 6 and 24 h and then stained with propidium iodide to quantify the DNA amount.
(§2) In order to evaluate the effect of PF-00477736 on cell cycle progression, NALM-6, SUPB-15, RPMI-8402, and BV-173 cell lines were seeded in a 24-well plate at 500,000 cell/1 ml with increasing concentrations of PF-00477736 (0.1, 0.5, and 1 μM for NALM-6 and SUP-B15; 0.05, 0.1, and 0.2 μM for RPMI-8402 and BV-173). After 6 and 24 h, cells were harvested and fixed overnight using ethanol at 70 %. Then, cells were stained using PI/RNase Staining Buffer according to the manufacturer’s instruction (BD Pharmingen), and the cell cycle profile was detected using FACSCanto II instrument. The percentage of the different cell cycle phases was performed using the DNA cell-cycle analysis software for flow cytometry data, ModFit LT (Verity).

[3] = test system: NALM-6 cell line; assay: Cell cycle analysis (propidium iodide); assay type: cell-based, human; settings: 0.1, 0.5, 1 μM, 24 h; reduced percentage of cells in G1 phase
Method: as §1, §2

[4] = test system: B- and T-ALL cell lines; assay: Annexin V/PI staining of apoptotic cells; assay type: cell-based, human; settings: 0.1, 0.5, 1 μM (0.05, 0.1, 0.2 μM for BV-173 and RPMI-8402), 24 and 48 h; proportional to dose and exposure time
Method: In order to assess whether cytotoxicity was correlated to increased susceptibility to apoptosis, B-/T-ALL cell lines were incubated with increasing concentrations of drug (0.1, 0.5, and 1 μM and 0.05, 0.1, and 0.2 μM only for BV-173 and RPMI-8402, respectively) for 24 and 48 h. […] The induction of apoptosis by PF-00477736 was also assessed by the detection of poly (ADP-ribose) polymerase (PARP) cleavage by Western blot analysis.
According to the WST-1 results, three different increasing concentrations of PF-00477736 were used to treat leukemia cells lines in order to detect and discriminate apoptotic, necrotic and dead cells. Cell lines were seeded in 12-well plates at 500,000 cell/1 ml with increasing concentrations of drug (0.1, 0.5 and 1 μM and 0.05, 0.1 and 0.2 μM only for BV-173 and RPMI-8402) for 24 and 48 h and incubated at 37 °C. Following the treatment, cells were harvested and stained with Annexin V/PI according to the manufacturer’s instruction (Roche). The percentage of Annexin V-PI-positive cells was determined within 1 × 10^4 cells of the population by flow cytometry (FACSCanto II, BD Biosciences Pharmingen, San Jose, CA, USA). The mean percentage of Annexin V-PI-positive cells and standard error measurement was calculated from at least two separate experiments.

[5] = test system: NALM-6 cells; settings: NALM-6 γ-H2A.X positive cells
Method: The so-called hyper-γ-H2A.X-positive cells loose the typical foci signal of γ-H2A.X and emit a much higher and diffuse signal of γ-H2A.X positivity.
NALM-6 and BV-173 cells were seeded to poly-D lysine-coated slides, fixed with 4 % PFA (paraformaldehyde), and stained at 37 °C with a mouse anti-H2A.X-Phosphorylated Alexa 647 conjugated antibody (BioLegend). Then, they were treated with DAPI (4.6 diamidino-2-phenylindole; Sigma Aldrich), and the slides were mounted with Mowiol (Calbiochem). Images were acquired with wide field fluorescence microscope Olympus BX61 fully motorized driven by Metamorph software, and the analysis was performed using the freeware ImageJ software.

Cn1cc(-c2[nH]c3cc(NC(=O)[C@H](N)C4CCCCC4)cc4c3c2C=NNC4=O)cn1 [PF-00477736]
phosphorylation of Chk1 (Ser345), Cdc25c (Ser216), Cdc2 (Tyr 15) and phospho-H2A.X [1]: did not induce protein phosphorylation changes
cell cycle profile [2]: progressive reduction of the number of cells in S and G2/M phase
cell cycle profile [3]: progressively increased the percentage of cells in G2/M phase
apoptosis (Annexin V/PI-positive cells) [4]: significant increase of apoptosis
fold change of mean value intensity of γ-H2A.X, treated vs untreated [5]: 1.4 fold
